Values quoted from earlier work, collected in patent publication US8183203B2, “Methods for treating pulmonary hypertension and compositions comprising vasoactive intestinal peptide” (Avant Garde Therapeutics & Technologies LLC, priority 1999, dated 2012).

Legend:
[1] = test system: dogs left in ventricular fibrillation; conditions: four dogs, ventricular fibrillation for seven minutes, 4 μg/kg IV bolus, then defibrillated
Na+ channels = conditions: isolated rabbit ventricular myocytes, acute

Row | Structure (SMILES) | dogs successfully resuscitated [1] | time to peak action (onset of inotropic action) (isolated rat hearts) [s] | maximum dp/dt (contractility) after a bolus injection (isolated rat hearts) | burst mode gating of Na+ channels (Na+ channels)
1 | N[C@@H](Cc1cc(I)c(Oc2ccc(O)c(I)c2)c(I)c1)C(=O)O [T3, 3,5,3′ triiodothyronine] | Three out of four | 15 | rapidly and significantly increased | acutely increased
2 | CC(C)NCC(O)c1ccc(O)c(O)c1 (stereo not drawn) [isoproterenol] | – | 60 | also increased | –
